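96-well plates; 48 h exposure; 5 concentrations. Endpoints by linear interpolation between flanking doses. Not reached: highest tested concentration assigned. GI50: concentration for 50% inhibition of growth.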 The source made the active and inactive calls. Rule as the data show it: active = GI50 up to about 1.1 µM and inactive = higher.
Assays:
Experiment in all cases: growth of human tumour cells (NCI), 48 h
MCF7 = tested on: MCF7
CCRF-CEM = tested on: CCRF-CEM
OVCAR-4 = tested on: OVCAR-4
HOP-62 = tested on: HOP-62
ACHN = tested on: ACHN
SF-539 = tested on: SF-539
RPMI-8226 = tested on: RPMI-8226
HOP-92 = tested on: HOP-92
SK-MEL-2 = tested on: SK-MEL-2
MDA-N = tested on: MDA-N
RXF 393 = tested on: RXF 393
SR = tested on: SR
LOX IMVI = tested on: LOX IMVI
EKVX = tested on: EKVX
Hs-578T = tested on: Hs-578T
Malme-3M = tested on: Malme-3M
HCT-15 = tested on: HCT-15
SNB-19 = tested on: SNB-19
BT-549 = tested on: BT-549

Measured: GI50

COc1ccc2[nH]c(C(=O)N3CC(CCl)c4ccc([N+](=O)[O-])cc43)cc2c1 (configuration not stated)
> 100 µM: HCT-15
inactive: MCF7 6.41 µM | CCRF-CEM > 100 µM | OVCAR-4 > 64.4 µM | HOP-62 > 100 µM | ACHN > 100 µM | SF-539 > 90.4 µM | RPMI-8226 > 100 µM | HOP-92 > 100 µM | SK-MEL-2 > 100 µM | MDA-N > 100 µM | RXF 393 > 65.5 µM | SR > 100 µM | LOX IMVI > 100 µM | EKVX 54.1 µM | Hs-578T 37 µM | Malme-3M > 100 µM | SNB-19 > 100 µM | BT-549 > 100 µM

OC(CC(CC(O)(C(F)(F)Cl)C(F)(F)Cl)=NNc1ccccc1)(C(F)(F)Cl)C(F)(F)Cl
3.23 µM: HCT-15
inactive: MCF7 2.94 µM | CCRF-CEM > 10 µM | OVCAR-4 3.33 µM | HOP-62 3.43 µM | ACHN 2.79 µM | SF-539 2.95 µM | RPMI-8226 > 10 µM | HOP-92 2.01 µM | SK-MEL-2 1.4 µM | MDA-N 2.87 µM | RXF 393 2.8 µM | SR 5.79 µM | LOX IMVI 2.94 µM | EKVX 3.27 µM | Hs-578T 2.45 µM | Malme-3M 3.7 µM | SNB-19 4.01 µM | BT-549 1.94 µM

CCOC(=O)C(NC(=O)c1ccccc1)(Nc1ccc(S(=O)(=O)Nc2ccc(OC)nn2)cc1)C(F)(F)F (configuration not stated)
> 100 µM: HCT-15
inactive: MCF7 > 100 µM | CCRF-CEM > 100 µM | OVCAR-4 > 100 µM | HOP-62 > 100 µM | ACHN > 100 µM | SF-539 > 100 µM | RPMI-8226 > 100 µM | HOP-92 > 100 µM | SK-MEL-2 > 100 µM | MDA-N > 100 µM | RXF 393 > 100 µM | SR > 100 µM | LOX IMVI > 100 µM | EKVX > 100 µM | Hs-578T > 100 µM | Malme-3M > 100 µM | SNB-19 > 100 µM | BT-549 > 100 µM

O=C(Nc1ccccc1)c1cc2c(cc1Cl)Sc1nccn1S2(=O)=O
inactive: MCF7 12.6 µM | CCRF-CEM 17.3 µM | OVCAR-4 31.8 µM | HOP-62 16 µM | ACHN 41.3 µM | SF-539 23 µM | RPMI-8226 19.8 µM | HOP-92 2.58 µM | SK-MEL-2 28.6 µM | MDA-N 23.5 µM | RXF 393 17.7 µM | SR 14.8 µM | LOX IMVI 9.2 µM | EKVX 24.2 µM | Hs-578T 22.8 µM | Malme-3M 30.1 µM | SNB-19 > 100 µM | BT-549 19.7 µM
19.1 µM: HCT-15

O=C(Oc1ccccc1)N1c2ccccc2[C@@]23O[C@]24CCC[C@H]3C#C/C=C\C#C[C@H]14
inactive: MCF7 6.5 µM | CCRF-CEM 15.7 µM | OVCAR-4 6.85 µM | HOP-62 12.9 µM | SF-539 20.4 µM | RPMI-8226 2.82 µM | HOP-92 12.3 µM | SK-MEL-2 11.8 µM | MDA-N 13.6 µM | RXF 393 10.1 µM | SR 10.4 µM | LOX IMVI 12.9 µM | EKVX 14.9 µM | Hs-578T 16.6 µM | Malme-3M 10.4 µM | SNB-19 15.7 µM | BT-549 12.9 µM
13.2 µM: HCT-15

CN(C)c1ccc(C(C#N)N2CCCN(C(C#N)c3ccc(N(C)C)cc3)C2c2ccc(N(C)C)cc2)cc1 (configuration not stated)
inactive: MCF7 > 100 µM | CCRF-CEM > 100 µM | OVCAR-4 > 100 µM | HOP-62 > 100 µM | ACHN > 100 µM | SF-539 > 100 µM | RPMI-8226 > 100 µM | HOP-92 > 100 µM | SK-MEL-2 > 100 µM | MDA-N > 100 µM | RXF 393 > 100 µM | SR > 100 µM | LOX IMVI > 100 µM | EKVX > 100 µM | Hs-578T > 100 µM | Malme-3M > 100 µM | SNB-19 > 100 µM | BT-549 > 100 µM
> 100 µM: HCT-15

COC(=O)CN1Cc2cc(C)cc(c2O)CN(CC(=O)OC)Cc2cc(C)cc(c2O)CN(CC(=O)OC)Cc2cc(C)cc(c2O)CN(CC(=O)OC)Cc2cc(C)cc(c2O)C1
inactive: MCF7 14.1 µM | CCRF-CEM 2.03 µM | OVCAR-4 12.2 µM | HOP-62 9.51 µM | ACHN 11.5 µM | SF-539 12.8 µM | RPMI-8226 39 µM | HOP-92 > 50 µM | SK-MEL-2 13.6 µM | MDA-N > 50 µM | RXF 393 4.19 µM | SR 6.04 µM | LOX IMVI 7.33 µM | EKVX 9.06 µM | Hs-578T 38.4 µM | Malme-3M 12.2 µM | SNB-19 16 µM | BT-549 24.8 µM
14.6 µM: HCT-15

O=C(CCCc1cccc2[nH]c3c(c12)CN(Cc1ccccc1)CC3)c1ccc(F)cc1
inactive: MCF7 > 100 µM | CCRF-CEM 30.4 µM | OVCAR-4 > 67 µM | HOP-62 > 37.4 µM | ACHN > 100 µM | SF-539 > 47.8 µM | RPMI-8226 12.8 µM | HOP-92 > 100 µM | SK-MEL-2 > 100 µM | MDA-N 97.5 µM | RXF 393 > 29.9 µM | SR 13 µM | LOX IMVI 7.85 µM | EKVX > 100 µM | Hs-578T 99.5 µM | Malme-3M 40.9 µM | SNB-19 > 100 µM | BT-549 > 100 µM
40.3 µM: HCT-15

Cc1ccc(C(=O)/C=C2/Nc3ccc([N+](=O)[O-])cc3N/C2=C/C(=O)c2ccc(C)cc2)cc1
90.8 µM: HCT-15
inactive: MCF7 84.1 µM | CCRF-CEM 88.3 µM | OVCAR-4 61.4 µM | HOP-62 15.3 µM | ACHN 37.5 µM | SF-539 52.8 µM | RPMI-8226 > 100 µM | HOP-92 61.4 µM | SK-MEL-2 66.5 µM | MDA-N > 100 µM | RXF 393 36.6 µM | SR 54.2 µM | LOX IMVI > 100 µM | EKVX 61.4 µM | Hs-578T 23.2 µM | Malme-3M > 100 µM | SNB-19 43.8 µM | BT-549 > 100 µM

O=c1cc(-c2ccccc2)[nH]c2ccc(N3CCCCC3)cc12
0.0329 µM: HCT-15
inactive: OVCAR-4 > 100 µM | EKVX > 100 µM | Malme-3M > 100 µM | BT-549 40.9 µM
active: MCF7 0.0428 µM | CCRF-CEM < 0.0161 µM | HOP-62 0.0305 µM | ACHN 0.048 µM | SF-539 < 0.0159 µM | RPMI-8226 0.0333 µM | HOP-92 < 0.01 µM | SK-MEL-2 0.0476 µM | MDA-N < 0.01 µM | RXF 393 < 0.0191 µM | SR 0.0172 µM | LOX IMVI 0.0465 µM | Hs-578T < 0.0152 µM | SNB-19 0.0347 µM

Cc1ccc(S(=O)(=O)NNCNC(=O)c2ccccc2)cc1
70.8 µM: HCT-15
inactive: MCF7 > 100 µM | CCRF-CEM 17.6 µM | OVCAR-4 > 100 µM | HOP-62 > 100 µM | ACHN > 100 µM | SF-539 > 100 µM | RPMI-8226 76 µM | HOP-92 > 100 µM | SK-MEL-2 > 100 µM | MDA-N 33.9 µM | RXF 393 > 100 µM | SR 2.29 µM | LOX IMVI 68.7 µM | EKVX > 100 µM | Hs-578T > 100 µM | Malme-3M > 100 µM | SNB-19 > 100 µM | BT-549 > 100 µM

OCC(CCc1c[nH]c2ccccc12)c1c[nH]c2ccccc12 (configuration not stated)
inactive: MCF7 15.5 µM | OVCAR-4 17.9 µM | HOP-62 20.5 µM | ACHN 17.9 µM | SF-539 18.4 µM | RPMI-8226 27 µM | HOP-92 15.2 µM | SK-MEL-2 16.5 µM | MDA-N 16.7 µM | RXF 393 15.3 µM | SR 12.1 µM | LOX IMVI 14.3 µM | EKVX 14.7 µM | Hs-578T 20.8 µM | Malme-3M 17 µM | SNB-19 16.7 µM | BT-549 16.5 µM
14.7 µM: HCT-15

NCCNS(=O)(=O)c1ccc(N)cc1
inactive: MCF7 > 100 µM | CCRF-CEM 32.8 µM | OVCAR-4 > 100 µM | HOP-62 > 100 µM | ACHN > 100 µM | SF-539 49.1 µM | RPMI-8226 > 100 µM | HOP-92 > 100 µM | SK-MEL-2 > 100 µM | MDA-N > 100 µM | RXF 393 > 100 µM | SR 41.4 µM | LOX IMVI > 100 µM | EKVX > 100 µM | Hs-578T 66.1 µM | Malme-3M > 100 µM | SNB-19 > 100 µM | BT-549 > 100 µM
> 100 µM: HCT-15

Brc1c(C#CCC2CCCCC2)ccc(C#CCC2CCCCC2)c1Br
> 100 µM: HCT-15
inactive: MCF7 > 100 µM | CCRF-CEM > 100 µM | OVCAR-4 > 100 µM | ACHN > 100 µM | SF-539 > 100 µM | RPMI-8226 > 100 µM | HOP-92 > 100 µM | SK-MEL-2 > 100 µM | MDA-N > 100 µM | RXF 393 > 100 µM | SR > 100 µM | LOX IMVI > 100 µM | EKVX > 100 µM | Hs-578T > 100 µM | Malme-3M > 100 µM | SNB-19 > 100 µM | BT-549 > 100 µM

O=[N+]([O-])/C(C(Cl)=C(Cl)Cl)=C(/Sc1ccccc1)N1CCOCC1
inactive: MCF7 2.57 µM | CCRF-CEM 1.83 µM | OVCAR-4 11.6 µM | HOP-62 17.5 µM | ACHN 4.82 µM | SF-539 6.03 µM | RPMI-8226 2.62 µM | HOP-92 2.34 µM | SK-MEL-2 5.14 µM | MDA-N 3.65 µM | RXF 393 1.92 µM | SR 2.12 µM | LOX IMVI 1.53 µM | EKVX 9.75 µM | Hs-578T 15.6 µM | Malme-3M 5.13 µM | SNB-19 6.75 µM | BT-549 4.76 µM
3.45 µM: HCT-15

— ChEMBL document CHEMBL1201862, “PubChem BioAssay data set” (2004)
